Experimental data published in publication PMC9744561 (Genes, Brain, and Behavior, 2022).

Molecular target: T1, Octα2R (α2-adrenergic-like octopamine receptor) (Drosophila melanogaster, UniProt Q9VE32)
T1 sequence (Q9VE32 1-699): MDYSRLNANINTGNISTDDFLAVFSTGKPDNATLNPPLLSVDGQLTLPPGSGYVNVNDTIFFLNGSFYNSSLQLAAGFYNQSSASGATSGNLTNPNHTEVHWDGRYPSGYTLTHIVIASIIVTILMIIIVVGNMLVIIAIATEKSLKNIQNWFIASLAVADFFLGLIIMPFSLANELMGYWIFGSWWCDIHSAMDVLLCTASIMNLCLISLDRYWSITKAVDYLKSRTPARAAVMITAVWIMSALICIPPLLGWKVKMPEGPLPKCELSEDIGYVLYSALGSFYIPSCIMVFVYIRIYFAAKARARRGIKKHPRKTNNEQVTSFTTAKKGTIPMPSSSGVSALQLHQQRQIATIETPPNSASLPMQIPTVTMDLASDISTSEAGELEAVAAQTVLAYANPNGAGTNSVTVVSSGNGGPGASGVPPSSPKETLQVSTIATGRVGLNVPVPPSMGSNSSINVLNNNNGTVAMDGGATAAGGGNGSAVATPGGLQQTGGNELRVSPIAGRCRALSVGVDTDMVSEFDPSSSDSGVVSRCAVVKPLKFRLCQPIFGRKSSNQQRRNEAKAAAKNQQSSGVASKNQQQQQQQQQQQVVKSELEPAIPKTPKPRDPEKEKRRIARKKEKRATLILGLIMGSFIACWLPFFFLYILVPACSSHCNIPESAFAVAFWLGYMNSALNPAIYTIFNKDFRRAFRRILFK
Assay: aequorin Ca2+ luminescence, inhibition of octopamine response, HEK-293 cells
Assay type: cell-based

IC50 [nM] | Compound
18000 | COC(=O)[C@@H]1[C@H]2C[C@H]3c4[nH]c5ccccc5c4CCN3C[C@@H]2CC[C@@H]1O [YO, yohimbine]
100 | NC1=NCC2c3ccccc3Cc3ccccc3N12 (stereo not drawn) [EP, epinastine]
93 | Cc1ccc(N(CC2=NCCN2)c2cccc(O)c2)cc1 [PA, phentolamine]
